Target: T1, ΔF508-CFTR (Homo sapiens, UniProt P13569, DEL508-508)
T1 construct: expressed in transfected cells
Assay: Membrane potential optical assay (FRET/VIPR), identification of correction compounds
Assay type: cell-based
Conditions: for Emax: relative efficacy
Source text: I) Membrane Potential Optical Methods for Assaying ΔF508-CFTR Modulation Properties of Compounds
The optical membrane potential assay utilized voltage-sensitive FRET sensors described by Gonzalez and Tsien (See, Gonzalez, J. E. and R. Y. Tsien (1995) “Voltage sensing by fluorescence resonance energy transfer in single cells” Biophys J 69(4): 1272-80, and Gonzalez, J. E. and R. Y. Tsien (1997) “Improved indicators of cell membrane potential that use fluorescence resonance energy transfer” Chem Biol 4(4): 269-77) in combination with instrumentation for measuring fluorescence changes such as the Voltage/Ion Probe Reader (VIPR) (See, Gonzalez, J. E., K. Oades, et al. (1999) “Cell-based assays and instrumentation for screening ion-channel targets” Drug Discov Today 4(9): 431-439).
These voltage sensitive assays are based on the change in fluorescence resonant energy transfer (FRET) between the membrane-soluble, voltage-sensitive dye, DiSBAC2(3), and a fluorescent phospholipid, CC2-DMPE, which is attached to the outer leaflet of the plasma membrane and acts as a FRET donor. Changes in membrane potential (Vm) cause the negatively charged DiSBAC2(3) to redistribute across the plasma membrane and the amount of energy transfer from CC2-DMPE changes accordingly. The changes in fluorescence emission were monitored using VIPR™ II, which is an integrated liquid handler and fluorescent detector designed to conduct cell-based screens in 96- or 384-well microtiter plates.
Identification of Correction Compounds
To identify small molecules that correct the trafficking defect associated with ΔF508-CFTR; a single-addition HTS assay format was developed. The cells were incubated in serum-free medium for 16 hrs at 37° C. in the presence or absence (negative control) of test compound. As a positive control, cells plated in 384-well plates were incubated for 16 hrs at 27° C. to “temperature-correct” ΔF508-CFTR. The cells were subsequently rinsed 3× with Krebs Ringers solution and loaded with the voltage-sensitive dyes. To activate ΔF508-CFTR, 10 μM forskolin and the CFTR potentiator, genistein (20 μM), were added along with Cl^−-free medium to each well. The addition of Cl^−-free medium promoted Cl^− efflux in response to ΔF508-CFTR activation and the resulting membrane depolarization was optically monitored using the FRET-based voltage-sensor dyes.
NIH3T3 mouse fibroblasts stably expressing ΔF508-CFTR are used for optical measurements of membrane potential. The cells are maintained at 37° C. in 5% CO2 and 90% humidity in Dulbecco's modified Eagle's medium supplemented with 2 mM glutamine, 10% fetal bovine serum, 1×NEAA, β-ME, 1× pen/strep, and 25 mM HEPES in 175 cm^2 culture flasks. For all optical assays, the cells were seeded at 30,000/well in 384-well matrigel-coated plates and cultured for 2 hrs at 37° C. before culturing at 27° C. for 24 hrs. for the potentiator assay. For the correction assays, the cells are cultured at 27° C. or 37° C. with and without compounds for 16-24 hours B) Electrophysiological Assays for assaying ΔF508-CFTR modulation properties of compounds

T1 sequence (P13569 with tags, fused parts or gaps DEL508-508): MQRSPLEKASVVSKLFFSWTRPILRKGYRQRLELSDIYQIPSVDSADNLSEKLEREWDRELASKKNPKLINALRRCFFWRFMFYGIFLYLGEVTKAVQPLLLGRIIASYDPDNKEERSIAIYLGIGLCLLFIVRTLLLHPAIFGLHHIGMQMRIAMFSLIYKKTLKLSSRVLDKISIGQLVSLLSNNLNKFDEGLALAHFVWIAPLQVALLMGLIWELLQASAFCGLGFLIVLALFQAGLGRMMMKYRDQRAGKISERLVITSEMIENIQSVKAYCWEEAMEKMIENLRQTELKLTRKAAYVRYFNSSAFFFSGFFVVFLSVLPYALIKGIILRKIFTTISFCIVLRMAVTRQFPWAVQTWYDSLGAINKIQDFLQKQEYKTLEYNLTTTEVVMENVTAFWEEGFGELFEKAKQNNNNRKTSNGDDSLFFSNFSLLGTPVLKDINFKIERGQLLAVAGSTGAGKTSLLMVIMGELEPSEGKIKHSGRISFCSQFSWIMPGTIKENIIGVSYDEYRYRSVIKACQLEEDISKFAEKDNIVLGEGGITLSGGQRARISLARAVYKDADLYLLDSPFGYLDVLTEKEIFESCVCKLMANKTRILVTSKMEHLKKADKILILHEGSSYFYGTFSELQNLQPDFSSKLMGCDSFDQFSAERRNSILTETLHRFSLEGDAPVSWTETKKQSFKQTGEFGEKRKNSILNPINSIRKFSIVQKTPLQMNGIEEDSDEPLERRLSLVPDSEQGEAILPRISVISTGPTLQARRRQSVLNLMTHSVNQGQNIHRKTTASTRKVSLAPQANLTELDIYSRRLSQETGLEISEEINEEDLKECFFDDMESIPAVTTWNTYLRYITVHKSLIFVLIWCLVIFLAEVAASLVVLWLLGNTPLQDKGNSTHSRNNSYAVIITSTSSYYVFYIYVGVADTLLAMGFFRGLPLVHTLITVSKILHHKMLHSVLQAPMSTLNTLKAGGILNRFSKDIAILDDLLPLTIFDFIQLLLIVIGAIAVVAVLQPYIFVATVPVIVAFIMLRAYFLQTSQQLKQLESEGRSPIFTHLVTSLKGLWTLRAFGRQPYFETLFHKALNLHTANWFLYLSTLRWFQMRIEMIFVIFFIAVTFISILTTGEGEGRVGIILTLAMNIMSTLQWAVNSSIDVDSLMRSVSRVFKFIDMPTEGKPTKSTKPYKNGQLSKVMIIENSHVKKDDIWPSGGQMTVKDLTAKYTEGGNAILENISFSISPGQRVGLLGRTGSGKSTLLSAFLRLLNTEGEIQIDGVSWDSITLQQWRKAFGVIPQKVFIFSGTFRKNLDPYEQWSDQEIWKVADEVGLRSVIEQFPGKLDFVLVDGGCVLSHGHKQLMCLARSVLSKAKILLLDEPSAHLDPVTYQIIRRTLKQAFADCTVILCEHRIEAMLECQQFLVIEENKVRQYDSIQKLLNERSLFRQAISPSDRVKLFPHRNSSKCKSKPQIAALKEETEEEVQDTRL

Row | EC50 | Emax | SMILES
1 | 25 to 60 µM | 25 to 100% | CC(c1nc2ccccc2c(=O)n1C)N1CCN(C(=O)c2ccc(C(F)(F)F)cc2)CC1 (centres unmarked) [compound 54]
2 | 10 to 25 µM | < 25% | CC(c1nc2ccccc2c(=O)n1C)N1CCN(C(=O)c2ccc(Br)cc2)CC1 (centres unmarked) [compound 55]
3 | 10 to 25 µM | < 25% | Cc1ccc(NC(=O)N2CCN(C(C)c3nc4ccccc4c(=O)n3C)CC2)cc1 (centres unmarked) [compound 56]
4 | 25 to 60 µM | < 25% | Cc1cccc(C(=O)N2CCN(C(C)c3nc4ccccc4c(=O)n3C)CC2)c1 (centres unmarked) [compound 57]
5 | 10 to 25 µM | < 25% | Cc1ccc(C(=O)N2CCN(C(C)c3cc4ccc(Cl)cc4c(=O)n3C)CC2)cc1 (centres unmarked) [compound 58]
6 | 25 to 60 µM | 25 to 100% | Cc1cccc(C(=O)N2CCN(C(C)c3nc4ccc(Cl)cc4c(=O)n3C)CC2)c1 (centres unmarked) [compound 59]
7 | 25 to 60 µM | < 25% | CC(=O)N1CCN(C(C)c2nc3ccc(Cl)cc3c(=O)n2C)CC1 (centres unmarked) [compound 60]
8 | 10 to 25 µM | 25 to 100% | CC(c1nc2ccccc2c(=O)n1C)N1CCN(S(=O)(=O)c2cccc(Cl)c2)CC1 (centres unmarked) [compound 61]
9 | < 10 µM | 25 to 100% | COc1ccc(S(=O)(=O)N2CCN(C(C)c3nc4ccc(Cl)cc4c(=O)n3C)CC2)cc1 (centres unmarked) [compound 62]
10 | 10 to 25 µM | < 25% | CC(c1nc2ccc(Cl)cc2c(=O)n1C)N1CCN(S(=O)(=O)c2ccccc2Cl)CC1 (centres unmarked) [compound 63]
11 | 10 to 25 µM | 25 to 100% | CC(c1nc2ccc(Cl)cc2c(=O)n1C)N1CCN(S(=O)(=O)c2cccc(Cl)c2)CC1 (centres unmarked) [compound 64]
12 | 10 to 25 µM | < 25% | Cn1c(CN2CCN(S(=O)(=O)c3ccccc3)CC2)nc2ccc(Cl)cc2c1=O [compound 65]
13 | 25 to 60 µM | < 25% | Cc1ccc(S(=O)(=O)N2CCN(Cc3nc4ccc(Cl)cc4c(=O)n3C)CC2)cc1 [compound 66]
14 | 10 to 25 µM | 25 to 100% | Cn1c(CN2CCN(S(=O)(=O)c3ccc(Cl)cc3)CC2)nc2ccc(Cl)cc2c1=O [compound 67]
15 | 25 to 60 µM | 25 to 100% | CC(c1nc2ccccc2c(=O)n1C)N1CCN(S(=O)(=O)c2ccccc2)CC1 (centres unmarked) [compound 68]
16 | 25 to 60 µM | 25 to 100% | Cc1ccccc1S(=O)(=O)N1CCN(C(C)c2nc3ccccc3c(=O)n2C)CC1 (centres unmarked) [compound 69]
17 | < 10 µM | 25 to 100% | CC(c1nc2ccccc2c(=O)n1C)N1CCN(S(=O)(=O)c2ccc(C(F)(F)F)cc2)CC1 (centres unmarked) [compound 70]
18 | 10 to 25 µM | 25 to 100% | CC(c1nc2ccc(Cl)cc2c(=O)n1C)N1CCN(S(=O)(=O)c2ccccc2)CC1 (centres unmarked) [compound 71]
19 | 10 to 25 µM | 25 to 100% | COc1ccc(S(=O)(=O)N2CCN(C(C)c3nc4ccc(Cl)cc4c(=O)n3C)CC2)cc1OC (centres unmarked) [compound 72]
20 | < 10 µM | 25 to 100% | CC(c1nc2ccc(Cl)cc2c(=O)n1C)N1CCN(S(=O)(=O)c2ccc(C(F)(F)F)cc2)CC1 (centres unmarked) [compound 73]
21 | 10 to 25 µM | < 25% | Cc1ccc(C(=O)N2CCN(C(C)c3nc4ccccc4c(=O)n3C)CC2)cc1 (centres unmarked) [compound 74]
22 | 25 to 60 µM | < 25% | CC(c1nc2ccccc2c(=O)n1C)N1CCN(C(=O)c2cccc(Cl)c2)CC1 (centres unmarked) [compound 75]
23 | 10 to 25 µM | < 25% | COc1ccc(C(=O)N2CCN(C(C)c3nc4ccccc4c(=O)n3C)CC2)cc1OC (centres unmarked) [compound 76]
24 | 25 to 60 µM | < 25% | COc1ccc(C(=O)N2CCN(C(C)c3nc4ccc(Cl)cc4c(=O)n3C)CC2)cc1OC (centres unmarked) [compound 77]
25 | 10 to 25 µM | < 25% | CC(c1nc2ccc(Cl)cc2c(=O)n1C)N1CCN(C(=O)c2ccc(C(F)(F)F)cc2)CC1 (centres unmarked) [compound 78]
26 | 25 to 60 µM | < 25% | CC(c1nc2ccccc2c(=O)n1C)N1CCN(S(C)(=O)=O)CC1 (centres unmarked) [compound 79]
27 | 10 to 25 µM | 25 to 100% | Cc1ccccc1S(=O)(=O)N1CCN(C(C)c2nc3ccc(Cl)cc3c(=O)n2C)CC1 (centres unmarked) [compound 80]
28 | 25 to 60 µM | < 25% | COc1ccc(C(=O)N2CCN(C(C)c3nc4ccccc4c(=O)n3C)CC2)cc1 (centres unmarked) [compound 81]

Row | EC50 | Emax | SMILES
29 | 25 to 60 µM | < 25% | CC(c1nc2ccccc2c(=O)n1C)N1CCN(C(=O)c2ccccc2Cl)CC1 (centres unmarked) [compound 82]
30 | 10 to 25 µM | < 25% | CC(c1nc2ccc(Cl)cc2c(=O)n1C)N1CCN(C(=O)c2cccc(Cl)c2)CC1 (centres unmarked) [compound 83]
31 | 25 to 60 µM | < 25% | Cn1c(CN2CCN(S(=O)(=O)c3ccc(Br)cc3)CC2)nc2ccc(Cl)cc2c1=O [compound 84]
32 | 10 to 25 µM | 25 to 100% | Cc1cccc(S(=O)(=O)N2CCN(C(C)c3nc4ccc(Cl)cc4c(=O)n3C)CC2)c1 (centres unmarked) [compound 85]
33 | 10 to 25 µM | < 25% | CC(c1nc2ccc(Cl)cc2c(=O)n1C)N1CCN(S(=O)(=O)Cc2ccccc2)CC1 (centres unmarked) [compound 86]
34 | 25 to 60 µM | < 25% | CCc1nc2ccccc2c(=O)n1C [compound 87]
35 | 25 to 60 µM | < 25% | CCc1nc2ccc(Cl)cc2c(=O)n1C [compound 88]
36 | 25 to 60 µM | < 25% | CCCn1c(C(C)OCC)nc2ccccc2c1=O (centres unmarked) [compound 89]
37 | 25 to 60 µM | < 25% | CC(c1nc2cc(Cl)ccc2c(=O)n1C)N1CCNCC1 (centres unmarked) [compound 90]
38 | 10 to 25 µM | 25 to 100% | CC(c1nc2cc(Cl)ccc2c(=O)n1C)N1CCN(S(=O)(=O)c2ccccc2)CC1 (centres unmarked) [compound 91]
39 | < 10 µM | > 100% | Cc1ccc(S(=O)(=O)N2CCN(C(C)c3nc4cc(Cl)ccc4c(=O)n3C)CC2)cc1 (centres unmarked) [compound 92]
40 | < 10 µM | 25 to 100% | COc1ccc(S(=O)(=O)N2CCN(C(C)c3nc4cc(Cl)ccc4c(=O)n3C)CC2)cc1 (centres unmarked) [compound 93]
41 | < 10 µM | 25 to 100% | CC(c1nc2cc(Cl)ccc2c(=O)n1C)N1CCN(S(=O)(=O)c2ccc(Cl)cc2)CC1 (centres unmarked) [compound 94]
42 | < 10 µM | 25 to 100% | CC(c1nc2cc(Cl)ccc2c(=O)n1C)N1CCN(S(=O)(=O)c2ccc(Br)cc2)CC1 (centres unmarked) [compound 95]
43 | < 10 µM | 25 to 100% | Cc1cccc(S(=O)(=O)N2CCN(C(C)c3nc4cc(Cl)ccc4c(=O)n3C)CC2)c1 (centres unmarked) [compound 96]
44 | < 10 µM | 25 to 100% | CC(c1nc2cc(Cl)ccc2c(=O)n1C)N1CCN(S(=O)(=O)c2cccc(Cl)c2)CC1 (centres unmarked) [compound 97]
45 | < 10 µM | 25 to 100% | CC(c1nc2cc(Cl)ccc2c(=O)n1C)N1CCN(S(=O)(=O)c2ccc(C(F)(F)F)cc2)CC1 (centres unmarked) [compound 98]
46 | < 10 µM | 25 to 100% | CC(c1nc2cc(Cl)ccc2c(=O)n1C)N1CCN(S(=O)(=O)c2ccc(OC(F)(F)F)cc2)CC1 (centres unmarked) [compound 99]
47 | 10 to 25 µM | 25 to 100% | COc1ccc(S(=O)(=O)N2CCN(C(C)c3nc4cc(Cl)ccc4c(=O)n3C)CC2)cc1OC (centres unmarked) [compound 100]
48 | 10 to 25 µM | 25 to 100% | CC(c1nc2cc(Cl)ccc2c(=O)n1C)N1CCN(C(=O)c2cccc(C(F)(F)F)c2)CC1 (centres unmarked) [compound 101]
49 | 25 to 60 µM | < 25% | CCc1nc2cccc(Cl)c2c(=O)n1C [compound 102]
50 | 10 to 25 µM | < 25% | CC(c1nc2cccc(Cl)c2c(=O)n1C)N1CCN(S(=O)(=O)c2ccccc2)CC1 (centres unmarked) [compound 103]
51 | 10 to 25 µM | < 25% | CC(c1nc2cccc(Cl)c2c(=O)n1C)N1CCN(S(=O)(=O)c2ccc(Cl)cc2)CC1 (centres unmarked) [compound 104]
52 | 10 to 25 µM | 25 to 100% | CC(c1nc2cccc(Cl)c2c(=O)n1C)N1CCN(S(=O)(=O)c2ccc(Br)cc2)CC1 (centres unmarked) [compound 105]
53 | 10 to 25 µM | < 25% | COc1ccc(S(=O)(=O)N2CCN(C(C)c3nc4cccc(Cl)c4c(=O)n3C)CC2)cc1 (centres unmarked) [compound 106]
54 | 10 to 25 µM | < 25% | Cc1ccc(S(=O)(=O)N2CCN(C(C)c3nc4cccc(Cl)c4c(=O)n3C)CC2)cc1 (centres unmarked) [compound 107]
55 | 10 to 25 µM | < 25% | CC(c1nc2cc(Cl)ccc2c(=O)n1C)N1CCN(S(C)(=O)=O)CC1 (centres unmarked) [compound 108]

Reference: patent US8642609B2, “Modulators of ATP-binding cassette transporters” (Vertex Pharmaceuticals Incorporated, priority 2003, dated 2014)
